In paper PMC10180490, “New Indazol-Pyrimidine-Based Derivatives as Selective Anticancer Agents: Design, Synthesis, and In Silico Studies” (Molecules, 2023):

Legend:
[1] = test system: breast cancer cells (MCF-7); assay: MTT cytotoxicity assay, MCF-7; format: cell-based; details: Homo sapiens, MCF7, MCF-7 cells, 48 h
Procedure: (§1) All of the synthesized compounds were screened for their cytotoxic effect against three different human cancer cells, namely breast cancer cells (MCF-7), lung cancer cells (A549), and colorectal adenocarcinoma cells (Caco2), using the MTT cytotoxic assay. […] Then, 3-[4,5-dimethylthiazol-2-yl]-2,5-diphenyl tetrazolium bromide (MTT) was added.

lung cancer cells (A549) = assay: MTT cytotoxicity assay, A549; format: cell-based, human
Procedure: as §1

[2] = test system: colorectal adenocarcinoma cells (Caco2); assay: MTT cytotoxicity assay, Caco2; format: cell-based; details: Homo sapiens, Caco-2, 48 h
Procedure: as §1

[3] = Cytotoxicity toward normal cells MCF-10a; format: cell-based, human; details: human, MCF-10a mammary gland epithelial cells (normal), MCF-10a normal cell line
[4] = test system: mammary gland epithelial cell line MCF-10a; assay: Cytotoxicity toward normal cells MCF-10a; format: cell-based, human; details: for SI (selectivity index): MCF-10a IC50 relative to MCF-7 IC50
MCF-7 cells [5] = assay: Cell cycle analysis by DNA flow cytometry; format: cell-based, human; details: MCF-7, 24 h; for increase in the percentage of cells in the G0-G1 phase: compared with the control (53.89%)
Procedure: An encouraging strategy for cancer therapy is targeting the cell cycle, according to the reported method. In this study, compounds 4i and 4f were tested—using a DNA flow cytometry assay—for their effects on the cell cycle of MCF-7 cells (Figure 2). […] Simultaneously, there was a significant reduction in the percentage of the cell population in the G2/M phase—32% and 46% for cells treated with compound 4f or 4i, respectively, compared with controls. The decline in the proportion of cells in the G2/M phase as well as the increase in the cell population in the G0-G1 and S phases indicate a reduction in cell cycle progression in MCF-7 cells.

[6] = test system: caspase-3/7 in MCF-7 cells; assay: Caspase-3/7 Green flow cytometry assay; format: cell-based, human; details: untreated controls 0.43%
Procedure: Caspases are essential factors in apoptotic cell death since they play a key role in maintaining homeostasis, and their activation induces apoptosis.
Caspase-3/7 activity was calculated using Caspase-3/7 Green Flow Cytometry Assay Kit Catalog # C10427.

MCF-7 cells [7] = assay: Annexin-V/PI apoptosis assay; format: cell-based, human; details: MCF-7, 24 h; for Annexin V/PI quadrant, remaining (necrosis): Figure 3, quadrant not given, assigned by elimination; for average increment at the early phase of apoptosis / average increment in late-stage apoptosis: average for the treated groups; for percentage of Annexin V/PI-stained cells: both early and late phases of apoptosis, untreated 1.76%
Procedure: To assess the apoptotic potential, MCF-7 cells were treated with compound 4i or 4f for 24 h and then assayed for Annexin-V/PI (propidium iodide) binding according to the reported protocol. […] At the early phase of apoptosis, the average increment for the treated groups was around 27%, while it was around 14% in late-stage apoptosis.
Apoptosis was measured using an Annexin V-FITC Apoptosis Detection Kit and analyzed using FACSCalibur flow cytometer.

| SMILES | melting point | IC50 [1] | IC50 (lung cancer cells (A549); Homo sapiens, A549, 48 h) | IC50 [2] | IC50 (lung cancer cells (A549); 48 h) | IC50 [3] | SI (selectivity index) [4] | reduction in the percentage of the cell population in the G2/M phase (MCF-7 cells [5]; compared with controls) | increase in the percentage of cells in the G0-G1 phase (MCF-7 cells [5]) | levels of active caspase-3/7 expression [6] | Annexin V/PI quadrant, remaining (necrosis) (MCF-7 cells [7]) | average increment at the early phase of apoptosis (MCF-7 cells [7]) | average increment in late-stage apoptosis (MCF-7 cells [7]) | percentage of Annexin V/PI-stained cells (MCF-7 cells [7]) | IC50 ([4]; MCF-10a normal cell line) | increase in the percentage of the cell population in the S phase (MCF-7 cells [5]; compared with control) |
| --- | --- | --- | --- | --- | --- | --- | --- | --- | --- | --- | --- | --- | --- | --- | --- | --- |
| NS(=O)(=O)c1ccc(Nc2nccc(Nc3ccc4[nH]ncc4c3)n2)cc1 [Compound 4g, 4-((4-((1H-indazol-5-yl)amino)pyrimidin-2-yl)amino) benzenesulfonamide] | – | 4.68 ± 0.22 µM | 11.2 ± 0.62 µM | 6.91 ± 0.34 µM | – | – | – | – | – | – | – | – | – | – | – | – |
| O=S(=O)(Nc1ncccn1)c1ccc(Nc2ncc(F)c(Nc3ccc4[nH]ncc4c3)n2)cc1 [Compound 4a, 4-((4-((1H-indazol-5-yl)amino)-5-fluoropyrimidin-2-yl)amino)-N-(pyrimidin-2-yl)benzenesulfonamide] | 343 to 345 °C | 2.96 ± 0.14 µM | 3.3 µM | 10.3 ± 0.51 µM | 3.2 ± 0.18 µM | – | – | – | – | – | – | – | – | – | – | – |
| Fc1cnc(Nc2ccc(N3CCOCC3)cc2)nc1Nc1ccc2[nH]ncc2c1 [Compound 4f, 5-fluoro-N4-(1H-indazol-5-yl)-N2-(4-morpholinophenyl) pyrimidine-2,4-diamine] | – | 1.63 ± 0.08 µM | 12.8 ± 0.71 µM | 22.3 ± 1.11 µM | – | 23.7 ± 1.17 µM | 14.5 | 32% | around 7% | 19% | 3.23% | around 27% | around 14% | about 47% | – | – |
| COc1cc(Nc2nccc(Nc3ccc4[nH]ncc4c3)n2)cc(OC)c1OC [Compound 4i, N4-(1H-indazol-5-yl)-N2-(3,4,5-trimethoxyphenyl) pyrimidine-2,4-diamine] | – | 1.84 ± 0.09 µM | 2.31 ± 0.13 µM | 4.99 ± 0.25 µM | – | 29.5 µM | 16.03 | – | around 7% | 26.5% | 5.92% | around 27% | around 14% | about 47% | 29.5 ± 1.46 µM | 3% |

The next lines start with results.

| melting point | SMILES | IC50 [1] | IC50 (lung cancer cells (A549); Homo sapiens, A549, 48 h) | IC50 [2] | IC50 (lung cancer cells (A549); 48 h) | IC50 [3] | SI (selectivity index) [4] | reduction in the percentage of the cell population in the G2/M phase (MCF-7 cells [5]; compared with controls) | increase in the percentage of cells in the G0-G1 phase (MCF-7 cells [5]) | levels of active caspase-3/7 expression [6] | Annexin V/PI quadrant, remaining (necrosis) (MCF-7 cells [7]) | average increment at the early phase of apoptosis (MCF-7 cells [7]) | average increment in late-stage apoptosis (MCF-7 cells [7]) | percentage of Annexin V/PI-stained cells (MCF-7 cells [7]) | IC50 ([4]; MCF-10a normal cell line) | increase in the percentage of the cell population in the S phase (MCF-7 cells [5]; compared with control) |
| --- | --- | --- | --- | --- | --- | --- | --- | --- | --- | --- | --- | --- | --- | --- | --- | --- |
| 352 to 354 °C | COc1cc(Nc2ncc(F)c(Nc3ccc4[nH]ncc4c3)n2)cc(OC)c1OC [Compound 4c, 5-fluoro-N4-(1H-indazol-5-yl)-N2-(3,4,5-trimethoxyphenyl)pyrimidine-2,4-diamine] | 29.1 ± 1.4 µM | 58.8 ± 3.25 µM | 67.8 ± 3.36 µM | – | – | – | – | – | – | – | – | – | – | – | – |
| 211 to 213 °C | O=S(=O)(Nc1nccs1)c1ccc(Nc2nccc(Nc3ccc4[nH]ncc4c3)n2)cc1 [Compound 4h, 4-((4-((1H-indazol-5-yl)amino)pyrimidin-2-yl)amino)-N-(thiazol-2-yl)benzenesulfonamide] | 21.1 ± 1.01 µM | 23.5 ± 1.3 µM | 17.3 ± 0.86 µM | – | – | – | – | – | – | – | – | – | – | – | – |
| 286 to 288 °C | NS(=O)(=O)c1cccc(Nc2ncc(F)c(Nc3ccc4[nH]ncc4c3)n2)c1 [Compound 4d, 3-((4-((1H-indazol-5-yl)amino)-5-fluoropyrimidin-2-yl)amino)benzenesulfonamide] | 4.8 ± 0.23 µM | 13.5 ± 0.74 µM | 9.63 ± 0.48 µM | – | – | – | – | – | – | – | – | – | – | – | – |
| 285 to 287 °C | O=S(=O)(Nc1nccs1)c1ccc(Nc2ncc(F)c(Nc3ccc4[nH]ncc4c3)n2)cc1 [Compound 4b, 4-((4-((1H-indazol-5-yl)amino)-5-fluoropyrimidin-2-yl)amino)-N-(thiazol-2-yl)benzenesulfonamide] | 14.3 ± 0.68 µM | 52.9 ± 2.92 µM | 31.2 ± 1.55 µM | – | – | – | – | – | – | – | – | – | – | – | – |
| 303 to 305 °C | NS(=O)(=O)c1ccc(Nc2ncc(F)c(Nc3ccc4[nH]ncc4c3)n2)cc1 [Compound 4e, 4-((4-((1H-indazol-5-yl)amino)-5-fluoropyrimidin-2-yl)amino)benzenesulfonamide] | 25.1 ± 1.2 µM | 46.6 ± 2.57 µM | 7.17 ± 0.36 µM | – | – | – | – | – | – | – | – | – | – | – | – |
